In patent US20250326777A1, “COMPOUNDS, COMPOSITIONS AND METHODS THEREOF” (HEPAITECH (BEIJING) BIOPHARMA TECHNOLOGY CO., LTD., priority 2022, published 2025):

Target: T1, human MRGPRX4 (Homo sapiens, UniProt Q96LA9)
T1 construct: expressed in transfected cells
Assay: MRGPRX4 antagonist calcium (FLIPR, Fluo-8) assay in HEK293T cells stably expressing human MRGPRX4, agonist 0.2 μM deoxycholic acid-3-phosphoric acid
Assay type: cell-based
Conditions: HEK293T cells stably expressing human MRGPRX4; for IC50: antagonist mode, top conc. 30 μM, ten 3-fold serial dilutions, C may also mean <40% inhibition at 2 μM, read-out: Antagonist activity (IC50 class)
Experimental: HEK293T cells stably expressing human MRGPRX4 were cultured in DMEM medium supplements with 10% FBS, 100 U/mL penicillin-streptomycin, 20 mM HEPES and 1 μg/mL puromycin at 37° C. with 5% (v/v) CO2. One day before test, the cells were detached using TrypLE™ Express and counted using cell counter. In a 384-well plate cells were seeded at a density of 20,000 cells/well in 20 uL/well planting medium (DMEM medium supplements with 5% FBS, 100 U/mL penicillin-streptomycin and 20 mM HEPES), and incubated overnight at 37° C. with 5% (v/v) CO2. On the day of experiments, the dye solution, prepared following the manufacture's instruction of the Screen Quest™ Fluo-8 No Wash Calcium Assay Kit, was added to each well (20 μL/well) of the cell plate. The cell plate was incubated at 25° C. for 1 hour. Test compounds in different doses were transferred to the cell plate by FLIPR and the plate was kept in the dark at 25° C. for 30 minutes. The agonist solution, 0.2 μM of deoxycholic acid-3-phosphoric acid in assay buffer, was added to each well of the plate. The plate was read for 160 sec with 1 sec interval to obtain data of antagonist mode in FLIPR. For various compounds, IC50 values were calculated by fitting % inhibition against log of compound concentrations (top conc. 30 μM, ten 3-fold serial dilutions) with Hill equation using XLfit. […] Those skilled in the art appreciate that IC50 of various compounds can be assessed in accordance with the present disclosure.

T1 sequence (Q96LA9 whole entry): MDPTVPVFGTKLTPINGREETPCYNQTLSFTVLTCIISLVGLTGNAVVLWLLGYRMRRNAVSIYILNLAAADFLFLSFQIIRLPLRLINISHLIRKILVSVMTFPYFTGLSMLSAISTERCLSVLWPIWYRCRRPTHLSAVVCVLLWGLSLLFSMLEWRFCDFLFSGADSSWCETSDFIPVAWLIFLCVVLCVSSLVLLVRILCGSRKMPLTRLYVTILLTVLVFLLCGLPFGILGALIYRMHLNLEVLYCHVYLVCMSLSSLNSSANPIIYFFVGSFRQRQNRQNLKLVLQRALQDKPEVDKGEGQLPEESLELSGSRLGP

`Fc1ccc([C@@H]2Cc3cc(C(F)(F)F)ccc3O2)cc1-c1nnn[nH]1` [Compound 104] was tested, and the IC50 was < 1 µM.

In the case of `O=C(O)c1ccc(F)c(C2Cc3cc(C(F)(F)F)ccc3O2)c1` (stereo not drawn) [Example 54], the IC50 is reported as > 10 µM.

Work on `CCCn1c(-c2ccc(C(=O)O)cc2)cc2ccc(C(F)(F)F)cc21` [Example 16] yielded an IC50 of 1 to 10 µM.

For `O=C(O)c1cc(C2CCCC2)cc(C2Cc3cc(C(F)(F)F)ccc3O2)c1` (stereo not drawn) [Example 65], the IC50 was > 10 µM.

In the case of `O=C(O)c1cccc(-c2cc3ccc(C(F)(F)F)cc3n2C2CCCC2)c1F` [Example 32], the IC50 is reported as > 10 µM.

In the case of `Fc1ccc([C@@H]2Cc3c(ccc4ccccc34)O2)cc1-c1nnn[nH]1` [Compound 103], the IC50 is reported as < 1 µM.

With `O=C(O)c1ccc(-c2nc3c(C(F)(F)F)c(F)ccc3o2)cc1F` [Example 44] the IC50 was > 10 µM.

Work on `O=C(O)c1cccc(C2Cc3cc(OC(F)(F)F)ccc3O2)c1F` (stereo not drawn) [Example 78] yielded an IC50 of 1 to 10 µM.

`O=C(O)c1cc(-c2nc3cc(C(F)(F)F)c(Cl)cc3o2)ccc1F` [Example 42] was tested, and the IC50 was > 10 µM.

`O=C(O)c1ccc(C2Cc3cc(C(F)(F)F)ccc3O2)cc1F` (stereo not drawn) [Example 55] was tested, and the IC50 was > 10 µM.

For `O=C(O)c1cccc(C2CCc3cc(C(F)(F)F)ccc3O2)c1F` (stereo not drawn) [Example 76], the IC50 was > 10 µM.

With `O=C(O)c1ccc(-c2cc3ccc(C(F)(F)F)cc3n2-c2ccccc2)cc1` [Example 34] the IC50 was 1 to 10 µM.

`Cn1c(-c2ccc(C(=O)O)cc2)c(F)c2ccc(C(F)(F)F)cc21` [Example 37] was tested, and the IC50 was > 10 µM.

For `Cn1c(-c2cccc(C(=O)O)c2)cc2ccc(C#N)cc21` [Example 7], the IC50 was > 10 µM.

With `CCCn1c(-c2ccc(C(=O)O)c(F)c2)cc2ccc(C(F)(F)F)cc21` [Example 19] the IC50 was 1 to 10 µM.

For `O=C(O)c1ccc(-c2nc3cc(C(F)(F)F)cc(Cl)c3o2)cc1` [Example 47], the IC50 was > 10 µM.

Work on `O=C(O)c1cc(C2CC2)cc(C2Cc3cc(C(F)(F)F)ccc3O2)c1` (stereo not drawn) [Example 66] yielded an IC50 of 1 to 10 µM.

In the case of `Fc1cc(-c2nnn[nH]2)cc(C2Cc3cc(C(F)(F)F)ccc3O2)c1` (stereo not drawn) [Compound 91], the IC50 is reported as < 1 µM.

`O=C(O)c1ccc(C2Cc3ccccc3O2)cc1` (stereo not drawn) [Example 59] was tested, and the IC50 was > 10 µM.

With `CN(C)C(=O)c1cccc(C2Cc3cc(C(F)(F)F)ccc3O2)c1F` (stereo not drawn) [Example 75] the IC50 was > 10 µM.

In the case of `O=C(O)c1cccc(C2Cc3c(cccc3C(F)(F)F)O2)c1F` (stereo not drawn) [Example 77], the IC50 is reported as > 10 µM.

`O=C(O)c1c(F)ccc(C2Cc3cc(C(F)(F)F)ccc3O2)c1F` (stereo not drawn) [Example 85] was tested, and the IC50 was > 10 µM.

With `Cc1cc(-c2nnn[nH]2)cc(C2Cc3cc(C(F)(F)F)ccc3O2)c1` (stereo not drawn) [Compound 94] the IC50 was < 1 µM.

`Cn1c(-c2ccc(F)c(C(=O)O)c2)cc2ccc(C(F)(F)F)cc21` [Example 2] was tested, and the IC50 was > 10 µM.

`O=C(O)c1cccc(C2Cc3cc(C(F)(F)F)ccc3O2)c1` (stereo not drawn) [Example 60] gave an IC50 of 1 to 10 µM.

`COc1c(C(=O)O)cccc1C1Cc2cc(C(F)(F)F)ccc2O1` (stereo not drawn) [Example 56] was tested, and the IC50 was > 10 µM.

Work on `O=C(O)c1cc(F)cc(C2Cc3cc(C(F)(F)F)ccc3O2)c1` (stereo not drawn) [Example 57] yielded an IC50 of 1 to 10 µM.

Work on `O=C(O)c1ccc(-c2cc3ccc(C(F)(F)F)cc3n2C2CCCC2)cc1` [Example 27] yielded an IC50 of 1 to 10 µM.

For `Cn1c(-c2ccc(C(=O)O)cc2)cc2c(-c3ccccc3)cccc21` [Example 22], the IC50 was > 10 µM.

`O=C(O)c1ccc(-c2cc3ccc(C(F)(F)F)cc3n2C2CCC2)cc1` [Example 28] showed an IC50 of 1 to 10 µM.

`CCCn1c(-c2ccc(C(=O)O)cc2)cc2ccc(F)cc21` [Example 20] was tested, and the IC50 was > 10 µM.

For `O=C(O)c1ccc(-c2cc3ccc(C(F)(F)F)cc3n2-c2ccccc2)c(F)c1` [Example 36], the IC50 was > 10 µM.

`CCCn1c(-c2ccc(C(=O)O)cc2)cc2ccc(OC(F)(F)F)cc21` [Example 21] was tested, and the IC50 was > 10 µM.

With `O=C(O)c1cc(-c2nc3c(C(F)(F)F)c(Cl)ccc3o2)ccc1F` [Example 45] the IC50 was > 10 µM.

In the case of `O=C(O)c1cccc(C2Cc3cc(Cl)ccc3O2)c1F` (stereo not drawn) [Example 63], the IC50 is reported as 1 to 10 µM.

`Fc1c(-c2nnn[nH]2)cccc1[C@H]1Cc2cc(C(F)(F)F)ccc2O1` [Compound 89] was tested, and the inhibition at 2 µM (HEK-293T, single concentration 2 μM) was 61%.

In the case of `N#Cc1ccc2c(c1)CC(c1cccc(C(=O)O)c1F)O2` (stereo not drawn) [Example 80], the IC50 is reported as > 10 µM.

With `Fc1ccc(C2Cc3cc(C(F)(F)F)ccc3O2)cc1-c1nnn[nH]1` (stereo not drawn) [Compound 98] the IC50 was < 1 µM.

`Cc1ccc2c(c1)CC(c1cccc(-c3nnn[nH]3)c1F)O2` (stereo not drawn) [Compound 95] was tested, and the inhibition at 0.5 µM (HEK-293T, single concentration 0.5 μM) was 8.6%.

With `CC(C)n1c(-c2ccc(C(=O)O)cc2)cc2ccc(C(F)(F)F)cc21` [Example 5] the IC50 was 1 to 10 µM.

With `O=C(O)c1cccc(-c2nc3cc(C(F)(F)F)cc(Cl)c3o2)c1` [Example 43] the IC50 was > 10 µM.

In the case of `CCCn1c(-c2ccc(C(=O)O)cc2)cc2ccc(-c3ccccc3)cc21` [Example 23], the IC50 is reported as > 10 µM.

`Fc1ccc(C2Cc3c(ccc4ccccc34)O2)cc1-c1nnn[nH]1` (stereo not drawn) [Compound 97] was tested, and the IC50 was < 1 µM.

With `O=C(O)c1ccc(C2Cc3ccc(C(F)(F)F)cc3N2)cc1` (stereo not drawn) [Example 41] the IC50 was > 10 µM.

In the case of `O=C(O)c1ccc(-c2cc3ccc(C(F)(F)F)cc3n2C2CCCCC2)cc1` [Example 29], the IC50 is reported as 1 to 10 µM.

`Cn1c(-c2ccc(C(=O)O)cc2)cc2ccc(C#N)cc21` [Example 6] was tested, and the IC50 was > 10 µM.

For `CN1c2cc(C(F)(F)F)ccc2CC1c1ccc(C(=O)O)cc1` (stereo not drawn) [Example 40], the IC50 was > 10 µM.

With `O=C(O)c1cccc(C2Cc3cc(F)cc(Cl)c3O2)c1F` (stereo not drawn) [Example 84] the IC50 was > 10 µM.

With `NC(=O)c1cccc(C2Cc3cc(C(F)(F)F)ccc3O2)c1F` (stereo not drawn) [Example 73] the IC50 was > 10 µM.

With `CCOP(=O)(OCC)c1ccc(-c2cc3ccc(C(F)(F)F)cc3n2C)cc1` [Example 70, diethyl(4-(1-methyl-6-(trifluoromethyl)-1H-indol-2-yl)phenyl)phosphonate] the IC50 was > 10 µM.

`O=C(O)c1cccc(-c2cc3ccc(C(F)(F)F)cc3o2)c1` [Example 51] was tested, and the IC50 was > 10 µM.

For `Cc1cc(C(=O)O)cc(C2Cc3cc(C(F)(F)F)ccc3O2)c1` (stereo not drawn) [Example 67], the IC50 was 1 to 10 µM.

In the case of `Cc1c(C(=O)O)cccc1C1Cc2cc(C(F)(F)F)ccc2O1` (stereo not drawn) [Example 68], the IC50 is reported as > 10 µM.

For `O=C(O)c1cccc(C2Cc3cc(C(F)(F)F)ccc3O2)c1F` (stereo not drawn) [Example 87], the IC50 was > 10 µM.

In the case of `O=C(O)c1cccc(C2Cc3cc(F)cc(F)c3O2)c1F` (stereo not drawn) [Example 82], the IC50 is reported as > 10 µM.

`O=C(O)c1ccc(-c2cc3ccc(C(F)(F)F)cc3n2-c2ccccc2)cc1F` [Example 35] was tested, and the IC50 was > 10 µM.

`Cn1c(-c2ccc(C(=O)O)cc2)cc2cccc(-c3ccccc3)c21` [Example 25] was tested, and the IC50 was > 10 µM.

For `O=C(O)c1cc(C2Cc3cc(C(F)(F)F)ccc3O2)ccc1F` (stereo not drawn) [Example 53], the IC50 was 1 to 10 µM.

For `O=C(O)c1cc(Br)cc(-c2nc3cc(C(F)(F)F)c(Cl)cc3s2)c1` [Example 48], the IC50 was > 10 µM.

`N#Cc1cc(-c2nnn[nH]2)cc(C2Cc3cc(C(F)(F)F)ccc3O2)c1` (stereo not drawn) [Compound 101] was tested, and the IC50 was < 1 µM.

With `O=C(O)c1cccc(-c2cc3cc(C(F)(F)F)ccc3o2)c1` [Example 50] the IC50 was > 10 µM.

With `Fc1c(-c2nnn[nH]2)cccc1[C@@H]1Cc2c(ccc3ccccc23)O1` [Compound 102] the IC50 was < 1 µM.

In the case of `COc1cc(C(=O)O)cc(C2Cc3cc(C(F)(F)F)ccc3O2)c1` (stereo not drawn) [Example 58], the IC50 is reported as > 10 µM.

In the case of `O=C(O)c1cccc(C2Cc3cc(F)ccc3O2)c1F` (stereo not drawn) [Example 79], the IC50 is reported as > 10 µM.

In the case of `CNC(=O)c1cccc(C2Cc3cc(C(F)(F)F)ccc3O2)c1F` (stereo not drawn) [Example 74], the IC50 is reported as > 10 µM.

For `O=C(O)c1ccc(-c2cc3ccc(C(F)(F)F)cc3[nH]2)cc1` [Example 3], the IC50 was > 10 µM.
